Measured values: ChEMBL document CHEMBL3044989, “Structurecytotoxicity relationship of a novel series of miconazole-like compounds” (Med Chem Res, 2012)
Calls of active or inactive are those of the source. The rule behind the calls is not given here.

Tests used:
Escherichia coli = assay: Antimicrobial activity against Escherichia coli (DH5alpha) after 16 hr by spectrophotometry; assay type: functional, organism-based; details: DH5[alpha]
K562 = assay: Cytotoxicity against Homo sapiens (human) K562 cells at 20 to 80 uM after 24 hr by MTT assay; assay type: functional, cell-based

| SMILES | IC50 (Escherichia coli) | Activity (K562) |
| --- | --- | --- |
| c1ccc(N/N=C(/Cn2cnc3ccccc32)c2ccccc2)cc1 | 12.3 µM |  |
| O=c1ccn(C/C(=N/Nc2ccccc2)c2ccccc2)c(=O)[nH]1 | 57.3 µM |  |
| O=c1cnn(C/C(=N/Nc2ccccc2)c2ccccc2)c(=O)[nH]1 | 14.6 µM | Active |
| COc1ccc(/C(Cn2cnc3ccccc32)=N\Nc2ccccc2)cc1 | 13.7 µM |  |
| c1ccc(N/N=C(/Cn2ccnc2)c2ccccc2)cc1 | 7.6 µM |  |
| c1ccc(N/N=C(/Cn2ccnc2-c2ccccc2)c2ccccc2)cc1 | 16.8 µM |  |

Compounds with a lower IC50 (Escherichia coli), results first:

| IC50 (Escherichia coli) | SMILES | Activity (K562) |
| --- | --- | --- |
| 7.1 µM | Cc1cn(C/C(=N/Nc2ccccc2)c2ccccc2)c(=O)[nH]c1=O |  |
| 6.2 µM | COc1ccc(/C(Cn2ccc(=O)[nH]c2=O)=N\Nc2ccccc2)cc1 |  |
| 4.8 µM | O=c1[nH]c(=O)n(C/C(=N/Nc2ccccc2)c2ccccc2)cc1Cl |  |
| 3.4 µM | c1ccc(N/N=C(/Cn2nnc3ccccc32)c2ccccc2)cc1 | Active |
| 3.1 µM | O=C1CNC(=O)N1C/C(=N/Nc1ccccc1)c1ccccc1 | Active |
